Molecules are shown by their SMILES.

By Ki is commonly meant a dissociation constant, usually derived from enzyme kinetics or from competition with a known ligand.

Test in all cases: biochemical
In one test the target is D(3) dopamine receptor (Homo sapiens, UniProt P35462).
The target in a further test is T1, D(4) dopamine receptor (Homo sapiens, UniProt P21917).
T1 sequence (P21917 whole entry): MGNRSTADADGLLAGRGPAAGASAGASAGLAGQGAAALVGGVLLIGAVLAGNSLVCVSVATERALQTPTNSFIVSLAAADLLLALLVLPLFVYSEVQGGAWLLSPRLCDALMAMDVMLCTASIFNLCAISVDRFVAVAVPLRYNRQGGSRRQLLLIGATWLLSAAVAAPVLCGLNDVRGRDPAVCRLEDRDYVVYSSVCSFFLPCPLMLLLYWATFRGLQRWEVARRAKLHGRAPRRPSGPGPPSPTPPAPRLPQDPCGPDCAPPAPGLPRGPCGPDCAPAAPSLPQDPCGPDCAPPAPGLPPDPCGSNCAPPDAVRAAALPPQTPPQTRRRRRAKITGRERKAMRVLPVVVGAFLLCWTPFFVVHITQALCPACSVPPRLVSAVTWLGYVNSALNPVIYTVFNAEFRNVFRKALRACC

For a further test, the target named is D(2) dopamine receptor (Homo sapiens, UniProt P14416).
D(2) dopamine receptor, sequence (P14416 whole entry): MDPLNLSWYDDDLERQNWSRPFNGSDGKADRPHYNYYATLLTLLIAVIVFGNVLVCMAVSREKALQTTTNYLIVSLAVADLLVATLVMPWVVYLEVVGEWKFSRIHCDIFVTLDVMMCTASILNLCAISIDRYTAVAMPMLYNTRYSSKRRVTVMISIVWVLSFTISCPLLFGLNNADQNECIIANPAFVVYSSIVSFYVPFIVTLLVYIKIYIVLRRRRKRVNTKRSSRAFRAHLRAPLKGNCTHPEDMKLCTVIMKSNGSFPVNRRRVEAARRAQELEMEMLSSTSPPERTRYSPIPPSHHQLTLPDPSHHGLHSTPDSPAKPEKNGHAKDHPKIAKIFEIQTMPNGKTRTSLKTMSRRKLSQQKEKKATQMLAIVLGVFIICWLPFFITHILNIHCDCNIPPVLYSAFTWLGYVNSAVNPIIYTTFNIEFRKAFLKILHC

D(3) dopamine receptor, sequence (P35462 whole entry): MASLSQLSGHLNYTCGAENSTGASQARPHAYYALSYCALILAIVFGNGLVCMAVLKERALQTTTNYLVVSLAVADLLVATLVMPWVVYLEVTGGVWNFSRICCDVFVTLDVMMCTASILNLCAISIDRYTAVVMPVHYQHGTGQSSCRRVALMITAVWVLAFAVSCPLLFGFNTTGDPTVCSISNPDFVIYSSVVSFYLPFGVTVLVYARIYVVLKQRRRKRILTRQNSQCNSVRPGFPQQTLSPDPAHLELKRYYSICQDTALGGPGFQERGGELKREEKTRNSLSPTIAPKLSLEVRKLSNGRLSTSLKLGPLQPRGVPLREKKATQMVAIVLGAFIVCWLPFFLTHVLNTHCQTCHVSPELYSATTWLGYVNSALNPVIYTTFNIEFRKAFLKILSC
Description for D(2) dopamine receptor: Displacement of [3H]spiperone from human Dopamine receptor D2 expressed in CHO cells
Description for D(3) dopamine receptor: Displacement of [3H]spiperone from human Dopamine receptor D3 expressed in HEK293 cells
Description for D(4) dopamine receptor: Displacement of [3H]spiperone from human Dopamine receptor D4 expressed in HEK293 cells

With `c1ccc(CN2CCC(n3nccc3-c3ccccc3)CC2)cc1`, the Ki at D(3) dopamine receptor came to 0.81 µM; on D(4) dopamine receptor, 0.015 µM; on D(2) dopamine receptor, 0.51 µM.

For the compound `Cc1c(-c2ccccc2)nnn1C1CCN(Cc2ccccc2)CC1`, the Ki on D(3) dopamine receptor was found to be 2.5 µM; on D(4) dopamine receptor, 0.017 µM; at D(2) dopamine receptor, 1.6 µM.

Turning to `c1ccc(CN2CCC(n3nnnc3-c3ccccc3)CC2)cc1`, the Ki on D(3) dopamine receptor is greater than 4.4 µM; at D(4) dopamine receptor, 1.2 µM; on D(2) dopamine receptor it was greater than 1.8 µM.

As for `c1ccc(CN2CCC(n3nnc(-c4ccccc4)n3)CC2)cc1`, the Ki on D(3) dopamine receptor turned out to be 1.4 µM; at D(4) dopamine receptor, 0.027 µM; at D(2) dopamine receptor, 1.1 µM.

As for `Cc1c(-c2ccccc2)cnn1C1CCN(Cc2ccccc2)CC1`, the Ki at D(3) dopamine receptor stood at 0.45 µM; on D(4) dopamine receptor, 0.0025 µM; at D(2) dopamine receptor, 0.14 µM.

With `Cc1cc(-c2ccccc2)n(C2CCN(Cc3ccccc3)CC2)n1`, the Ki on D(3) dopamine receptor turned out to be 3 µM; on D(4) dopamine receptor it was 0.14 µM; at D(2) dopamine receptor it was 0.31 µM.

With `Cc1nn(C2CCN(Cc3cccc(Cl)c3)CC2)cc1-c1ccccc1`, the figures for the Ki at D(3) dopamine receptor, at D(4) dopamine receptor and at D(2) dopamine receptor were 0.12 µM, 0.0031 µM and 0.015 µM, respectively.

As for `Cc1nn(C2CCN(Cc3ccccc3)CC2)cc1-c1ccccc1`, the Ki on D(3) dopamine receptor was 0.028 µM; on D(4) dopamine receptor, 0.00039 µM; on D(2) dopamine receptor, 0.0061 µM.

Consider `Cc1nnn(C2CCN(Cc3ccccc3)CC2)c1-c1ccccc1`, for which the Ki on D(3) dopamine receptor was 2.2 µM; at D(4) dopamine receptor, 0.018 µM; on D(2) dopamine receptor it was 1.2 µM.

In the case of `Cc1nn(C2CCN(Cc3cccc(C#N)c3)CC2)cc1-c1ccccc1`, the Ki came to 0.26 µM on D(3) dopamine receptor, 0.0012 µM on D(4) dopamine receptor and 0.015 µM at D(2) dopamine receptor.

Take `c1ccc(CN2CCC(n3cnc(-c4ccccc4)c3)CC2)cc1`: the Ki came to 0.74 µM on D(3) dopamine receptor, 0.04 µM at D(4) dopamine receptor and 0.45 µM at D(2) dopamine receptor.

For the compound `Cc1c(-c2ccccc2)cnn1C1CCN(Cc2cccc(C#N)c2)CC1`, the Ki at D(3) dopamine receptor was 4.4 µM; on D(4) dopamine receptor it was 0.0052 µM; on D(2) dopamine receptor, greater than 1.7 µM.

Consider `c1ccc(CN2CCC(n3cc(-c4ccccc4)nn3)CC2)cc1`, for which the Ki at D(3) dopamine receptor is 1.3 µM; on D(4) dopamine receptor it was 0.032 µM; at D(2) dopamine receptor, 0.46 µM.

With `Cc1c(-c2ccccc2)cnn1C1CCN(Cc2cccc(Cl)c2)CC1`, the values for the Ki on D(3) dopamine receptor, on D(4) dopamine receptor and on D(2) dopamine receptor were 0.82 µM, 0.0031 µM and 0.37 µM, respectively.

Regarding `Cc1c(-c2ccccc2)n[nH]c1C1CCN(Cc2ccccc2)CC1`, the Ki at D(3) dopamine receptor was found to be 0.45 µM; on D(4) dopamine receptor, 0.0047 µM; at D(2) dopamine receptor, 0.09 µM.

These data come from ChEMBL document CHEMBL1132043, “4-N-linked-heterocyclic piperidine derivatives with high affinity and selectivity for human dopamine D4 receptors” (Bioorg Med Chem Lett, 1999).
